Literature values in patent US11725025B2, “Progesterone phosphate analogs and uses related thereto” (EMORY UNIVERSITY, priority 2013, dated 2023).

Tests used:
[1] = system: moderate to severe TBI patients; settings: 3 days of intravenous progesterone treatment; 100 moderate to severe TBI patients

CC(=O)[C@H]1CC[C@H]2[C@@H]3CCC4=CC(=O)CC[C@]4(C)[C@H]3CC[C@]12C [progesterone]
functional outcomes at 30 days post-injury [1]: significantly improved
reduction of mortality [1]: over 60%
solubility in aqueous-based formulations: insoluble
